The values below come from patent US8003796B2, “Pyridone GPR119 G protein-coupled receptor agonists” (Bristol-Myers Squibb Company, priority 2007, dated 2011).

Experiment [1] deals with male C57BL/6J mice. In words: Mouse oral glucose tolerance test. The conditions noted are these: oGTT in fasted mice; oral administration at -30 min, glucose 2 g/kg at time 0; plasma glucose AUC vs vehicle; dose not given. The class given is in vivo. Here is the method:
Mouse Oral Glucose Tolerance Test
24 male C57BL/6J mice (8-10 weeks old, average weight 28 g) were randomized into 4 groups (1 mouse/cage) of 6 mice per group based on fed plasma glucose and body weight. Prior to initiating the study, mice were fasted overnight and the next morning they were weighed and placed in the experimental lab. After 30 min in the environment, the mice were bled via tail tip at −30 min and immediately given their first oral administration of vehicle (0.5% Methocel, 0.1% Tween 80 in water) or compound solutions (5 ml/kg). At time 0 the mice were bled and given 50% glucose (2 g/kg) to initiate the oral glucose tolerance test (oGTT). The mice were bled 30, 60 and 120 min after the glucose load. Blood samples were drawn into potassium EDTA, placed on ice during the study and subsequently centrifuged for 10 min at 3000 rpm at 4° C. Plasma samples were diluted 11-fold for glucose analysis in the Cobas Mira System (Roche Diagnostics). Area under the curve was calculated from the plasma glucose time course data using the trapezoid rule with fasting plasma glucose as the baseline (GraphPad Prism Software). The statistical significance of the changes in the glucose AUCs resulting from the different treatments was determined by one-way ANOVA followed by Dunnett's test using the vehicle group as the control (JMP software, release 5.1.2).

In experiment [2] the target is T1, human GPR119 (Homo sapiens, UniProt Q8TDV5).
T1 construct: expressed in transfected cells; host or cells: Flp-In-T-REx 293 (tetracycline-inducible)
T1 sequence (Q8TDV5 1-335): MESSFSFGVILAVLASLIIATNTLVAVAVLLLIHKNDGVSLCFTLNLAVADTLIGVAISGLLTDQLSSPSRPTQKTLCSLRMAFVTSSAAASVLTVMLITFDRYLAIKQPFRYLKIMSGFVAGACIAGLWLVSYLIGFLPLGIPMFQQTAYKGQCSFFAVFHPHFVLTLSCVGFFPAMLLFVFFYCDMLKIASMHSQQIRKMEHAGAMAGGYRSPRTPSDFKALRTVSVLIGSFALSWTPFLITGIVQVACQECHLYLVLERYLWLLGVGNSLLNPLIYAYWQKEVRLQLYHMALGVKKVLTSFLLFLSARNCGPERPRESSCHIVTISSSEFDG
The experiment can be described thus: Human Tet-inducible cAMP assay. The class given is cell-based. As to conditions: Flp-In-T-REx 293 tetracycline inducible cells expressing GPR119; cAMP by Hit Hunter cAMP kit; 1 hour at 37° C.; read-out: hGPR119 EC50. Here is the method: The in vitro modulation of recombinant human GPR119 was determined as follows.
Human Tet-Inducible cAMP Assay
Cell lines expressing GPR119 are generated using the Flp-In-T-REx 293 tetracycline inducible gene expression system are cultured in culture medium comprising the following components: DMEM#11965, 10% FBS, 2 mM L-glutamine, 200 ug/ml Hygromycin B, and 15 ug/ml blasticidin.
For cAMP assays, cells are plated on 96 well plates (e.g., BD Falcon: REF 353948, black side, clear bottom, TC surface) at a density of about 4.5×10^4 cells per well in growth medium containing 1.0 ug/ml tetracycline (1.0 mg/ml stock). The cells are then incubated for 48 hours at 37° C.
Following the incubation, the growth medium is removed from the wells and the wells rinsed (once) with the assay buffer included in the Hit Hunter cAMP kit (100 μl/well). Following the wash, 20 μl of assay buffer is added to each well, followed by addition of 10 μl of a 3× concentration compound working solution. The solution is then mixed. The final concentration range of compound is from about 10^−5M to about 10^−11M. The reagents are then incubated at 37° C. at 5% CO2 for 1 hour.
The manufacturer's protocol may be followed for cAMP determination. The Hit Hunter cAMP kit protocol is outlined for the HIT-T15 cAMP assays described above.
Compounds of the present invention were tested in the Human Tet-inducible cAMP assay described immediately above and the results shown in Table 1 below were obtained.
In general terms: cAMP levels reflect the balance of adenylyl cyclase and phosphodiesterase activity.

Structures can show the parent of a compound that is named as a salt.

As for `CC(C)OC(=O)N1CCC(Oc2ccn(-c3ccc(S(C)(=O)=O)cc3)c(=O)c2)CC1` [Example 3, isopropyl 4-(1-(4-(methylsulfonyl)phenyl)-2-oxo-1,2-dihydropyridin-4-yloxy)piperidine-1-carboxylate], the “Glucose Lowering (%)” value in experiment [1] is recorded as −29%.
Regarding `CC(C)OC(=O)N1CCC(Oc2ccn(-c3ccc(NC(=O)C(C)C)cc3)c(=O)c2)CC1` [Example 209, isopropyl 4-(1-(4-isobutyramidophenyl)-2-oxo-1,2-dihydropyridin-4-yloxy)piperidine-1-carboxylate], the EC50 (commonly the concentration that produces a half-maximal response) in experiment [2] worked out at 3390 nM.
With `CCCc1cnc(N2CCC(Oc3cc(=O)n(-c4ccc(S(C)(=O)=O)c(F)c4)cc3Cl)CC2)nc1` [Example 224, 5-chloro-1-(3-fluoro-4-(methylsulfonyl)phenyl)-4-(1-(5-propylpyrimidin-2-yl)piperidin-4-yloxy)pyridin-2(1H)-one, TFA salt], in experiment [2], the EC50 came to 6 nM.
On to `CCCc1cnc(N2CCC(Oc3cc(=O)n(-c4ccc(C#N)c(F)c4)cc3Cl)CC2)nc1` [Example 227, 4-(5-chloro-2-oxo-4-(1-(5-propylpyrimidin-2-yl)piperidin-4-yloxy)pyridin-1(2H)-yl)-2-fluorobenzonitrile], for which the concentration giving a half-maximal response (EC50) in experiment [2] came to 1 nM.
The same measure, in the same setting: the same measure for `N#Cc1ccc(-n2cc(Cl)c(OC3CCN(c4ncc(C5CC5)cn4)CC3)cc2=O)cc1F` [Example 229, 4-(5-chloro-4-(1-(5-cyclopropylpyrimidin-2-yl)piperidin-4-yloxy)-2-oxopyridin-1(2H)-yl)-2-fluorobenzonitrile]: 4 nM; for `CCCc1cnc(N2CCC(Oc3ccn(-c4ccc(NC(=O)C(C)(C)C)c(F)c4)c(=O)c3)CC2)nc1` [Example 239, N-(2-fluoro-4-(2-oxo-4-(1-(5-propylpyrimidin-2-yl)piperidin-4-yloxy)pyridin-1(2H)-yl)phenyl)pivalamide]: 9 nM; for `CS(=O)(=O)c1ccc(-n2ccc(OC3CCN(c4ncc(C5CCC5)cn4)CC3)cc2=O)c(F)c1` [Example 243, 4-(1-(5-cyclobutylpyrimidin-2-yl)piperidin-4-yloxy)-1-(2-fluoro-4-(methylsulfonyl)phenyl)pyridin-2(1H)-one]: 9 nM.
Regarding `CCCc1cnc(N2CCCC(Oc3ccn(-c4ccc(S(C)(=O)=O)cc4)c(=O)c3)CC2)nc1` (centres unmarked) [Example 261, 1-(4-(methylsulfonyl)phenyl)-4-(1-(5-propylpyrimidin-2-yl)azepan-4-yloxy)pyridin-2(1H)-one], the EC50 in experiment [2] is 257 nM.
Still for that read-out and setting: the same measure for `N#Cc1ccc(-n2cc(Cl)c(OC3CCN(c4ncc(CCC(F)(F)F)cn4)CC3)cc2=O)cc1F` [Example 263, 4-(5-chloro-2-oxo-4-(1-(5-(3,3,3-trifluoropropyl)pyrimidin-2-yl)piperidin-4-yloxy)pyridin-1(2H)-yl)-2-fluorobenzonitrile]: 4 nM.
With `N#Cc1ccc(-n2cc(Cl)c(OC3CCN(c4ncc(C5CC5)cn4)CC3)cc2=O)c(F)c1` [Example 265, 4-(5-chloro-4-(1-(5-cyclopropylpyrimidin-2-yl)piperidin-4-yloxy)-2-oxopyridin-1(2H)-yl)-3-fluorobenzonitrile], the EC50 in experiment [2] came to 4 nM.
On the same count and under the same terms, the same measure for `CC(C)(C)OC(=O)N1CCC(Oc2cc(=O)n(-c3ccc(C#N)c(F)c3)cc2Cl)CC1` [Example 267, tert-butyl 4-(5-chloro-1-(4-cyano-3-fluorophenyl)-2-oxo-1,2-dihydropyridin-4-yloxy)piperidine-1-carboxylate]: 4 nM.
